Tests used:
[1] = Pharmacokinetic profile in mice after oral gavage; format: in vivo, mouse; conditions: mouse; fasted male Hilltop mice, 10 mg/kg oral gavage, plasma; read-out: Cmax
Description: Pharmacokinetic Profile in Mice
In this series of studies, the pharmacokinetic profile characteristics of compounds of the present invention were evaluated. The plasma concentration levels of the compounds were monitored in the blood stream (i.e., plasma) after oral gavage using Cmax, and area under the curve (AUC).
8 week old male Hilltop mice were fasted overnight. Animals were randomized into groups (n=9) by body weight. Mice were dosed with 10 mg/kg compound (in 20% PEG400/80% 0.5% carboxymethylcellulose (medium viscosity)+0.25% Tween-80) at a volume of […] through oral gavage. Blood was collected via orbital bleeding at 0, 0.25, 0.5, 1, 2, and 4 h post-dose, with no one mouse having more than 3 blood draws. Blood was collected in EDTA coated tubes. Samples were stored at −20° C. until analysis.
Quantitation of compound levels in plasma was accomplished by LC-MS/MS analysis. Standard curve and quality control samples were prepared in male CD-1 mouse plasma containing EDTA K^2+ as an anticoagulant at final concentrations ranging from 500 to 0.1 ng/mL. The plasma samples, calibration curve standards, and quality control samples were prepared in an identical method in a 96-well deep plate (1 mL) with a quenching solution (1:1 mixed acetonitrile:methanol containing the internal standard Reserpine @ 400 ng/mL). Low volume samples were supplemented with CD-1 mouse plasma. The plate was mixed on multi-tube vortexer for 1 min and centrifuged at 4000 rpm for 30 min at 4° C. (Sorvall® Super T21) before LC-MS/MS analysis. LC conditions were developed and optimized based on each compound as needed. The outlet of the column was coupled to AB Sciex 4000 QTrap Mass Spectrometer (AB Sciex, Brugg Switzerland). Detection was carried out using multiple reaction monitoring mode with positive-ion detection focusing. The pharmacokinetic parameters were derived from the plasma-time data and calculated using the standard non-compartmental method with WinNonlin (Pharsight, Mountain View, Calif.) or PK Solver (Comp. Meth. Prog. Biomed. (2010), 99, 306-314).
Values reported are the mean plasma concentration of three mice. […]

[2] = molecular target: T1, human TGR5 receptor (Homo sapiens, UniProt Q8TDU6); test: Human TGR5 cAMP production assay (hTGR5-CHO cells, DiscoveRx cAMP XS+ kit); format: cell-based; conditions: luminescent cAMP assay, read-out: Human TGR5 Lum. cAMP Activity (EC50)
T1 construct: host or cells: CHO-K1 (hTGR5-CHO)
T1 sequence (Q8TDU6 1-330): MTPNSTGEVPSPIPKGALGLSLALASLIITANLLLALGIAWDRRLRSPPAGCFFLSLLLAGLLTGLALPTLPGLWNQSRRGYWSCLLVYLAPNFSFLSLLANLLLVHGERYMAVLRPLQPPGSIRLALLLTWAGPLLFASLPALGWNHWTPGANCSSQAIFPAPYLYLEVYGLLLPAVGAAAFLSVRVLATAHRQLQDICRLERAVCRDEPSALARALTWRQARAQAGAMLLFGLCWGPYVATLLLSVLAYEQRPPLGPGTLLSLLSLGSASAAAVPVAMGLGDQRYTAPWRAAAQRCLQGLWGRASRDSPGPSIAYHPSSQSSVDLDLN
Summary of the method: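 CHO-K1 cells stably expressing hTGR5, in PBS with IBMX and cAMP antibody, treated with half-log compound dilutions for 1 h at room temperature. cAMP measured by enzyme-fragment complementation luminescence after overnight detection; EC50 values reported.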

[3] = molecular target: T2, mouse TGR5 receptor (Mus musculus, UniProt Q80SS6); test: Mouse TGR5 HTRF cAMP production assay (HEK293-EBNA cells, Cisbio cAMP HiRange kit); format: cell-based; conditions: HEK293-EBNA cells overexpressing mouse TGR5, HTRF cAMP assay
T2 construct: host or cells: HEK293-EBNA (293 c18, ATCC CRL10852)
T2 sequence (Q80SS6 1-329): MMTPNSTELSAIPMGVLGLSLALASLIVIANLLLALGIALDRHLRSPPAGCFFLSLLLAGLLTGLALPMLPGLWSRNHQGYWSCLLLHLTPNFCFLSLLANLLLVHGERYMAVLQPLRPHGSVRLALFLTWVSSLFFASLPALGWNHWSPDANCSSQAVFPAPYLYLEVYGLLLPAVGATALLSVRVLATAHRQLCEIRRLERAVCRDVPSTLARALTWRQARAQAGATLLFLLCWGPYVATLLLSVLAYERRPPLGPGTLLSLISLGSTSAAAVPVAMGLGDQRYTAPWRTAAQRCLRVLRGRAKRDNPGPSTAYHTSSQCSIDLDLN
Summary of the method: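 HEK293-EBNA cells stably expressing mouse TGR5 (episomal vector) were suspended in serum-free DMEM with 500 μM IBMX and exposed to 12-point half-log compound dilutions for 1 h at room temperature. cAMP was detected by HTRF (d2-cAMP/anti-cAMP cryptate, 1 h, room temperature), giving EC50 from duplicates.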

| Cmax [1] [ng/mL] | EC50 [2] [nM] | EC50 [3] [nM] | SMILES |
| --- | --- | --- | --- |
| 42 | < 100 | < 100 | N=C(N)NCCC[C@H](NC(=O)CCC1CCN(c2cc(N3CC[C@H]3C(=O)NCCc3ccc(C(F)(F)F)cc3)nc(C(F)(F)F)n2)CC1)C(=O)O [Compound 258, (S)-5-guanidino-2-(3-(1-(2-(trifluoromethyl)-6-((S)-2-((4-(trifluoromethyl)phenethyl)carbamoyl)azetidin-1-yl)pyrimidin-4-yl)piperidin-4-yl)propanamido)pentanoic acid] |
| 2.8 | < 100 | < 100 | N#Cc1ccc(CCNC(=O)[C@@H]2CCCN2c2cc(N3CCC(CCCC(=O)N[C@H](CCCNC(=N)N)C(=O)O)CC3)nc(C(F)(F)F)n2)cc1 [Compound 73, (R)-2-(4-(1-(6-((S)-2-((4-cyanophenethyl)carbamoyl)pyrrolidin-1-yl)-2-(trifluoromethyl)pyrimidin-4-yl)piperidin-4-yl)butanamido)-5-guanidinopentanoic acid] |
| 2.5 | < 100 | < 100 | N#Cc1ccc(CCNC(=O)[C@@H]2CCCN2c2cc(N3CCC(CCNC(=O)N[C@@H](CCCNC(=N)N)C(=O)O)CC3)nc(C(F)(F)F)n2)cc1 [Compound 83, (S)-2-(3-(2-(1-(6-((S)-2-((4-cyanophenethyl)carbamoyl)pyrrolidin-1-yl)-2-(trifluoromethyl)pyrimidin-4-yl)piperidin-4-yl)ethyl)ureido)-5-guanidinopentanoic acid] |
| 12 | < 100 | < 100 | N#Cc1ccc(CCNC(=O)[C@@H]2CCCN2c2cc(N3CCC(CCCC(=O)NCCNc4ncc(C(=O)O)cn4)CC3)nc(C(F)(F)F)n2)cc1 [Compound 98, (S)-2-((2-(4-(1-(6-(2-((4-cyanophenethyl)carbamoyl)pyrrolidin-1-yl)-2-(trifluoromethyl)pyrimidin-4-yl)piperidin-4-yl)butanamido)ethyl)-amino)pyrimidine-5-carboxylic acid] |
| 8 | < 100 | < 100 | N#Cc1ccc(CCNC(=O)[C@@H]2CCCN2c2cc(N3CCC(CCNC(=O)NCCOCCOCCOCCC(=O)O)CC3)nc(C(F)(F)F)n2)cc1 [Compound 364, (S)-1-(1-(6-(2-((4-cyanophenethyl)carbamoyl)pyrrolidin-1-yl)-2-(trifluoromethyl)pyrimidin-4-yl)piperidin-4-yl)-4-oxo-8,11,14-trioxa-3,5-diazaheptadecan-17-oic acid] |
| 15 | < 100 | < 100 | N#Cc1ccc(CCNC(=O)[C@@H]2CCCN2c2cc(N3CCC(CCNS(=O)(=O)CCN)CC3)nc(C(F)(F)F)n2)cc1 [Compound 116, (S)-1-(6-(4-(2-(2-aminoethylsulfonamido)ethyl)piperidin-1-yl)-2-(trifluoromethyl)-pyrimidin-4-yl)-N-(4-cyanophenethyl)pyrrolidine-2-carboxamide] |
| 22 | < 100 | < 100 | N#Cc1ccc(CCNC(=O)[C@@H]2CCCN2c2cc(N3CCC(CCCC(=O)N[C@H](CC(=O)O)C(=O)O)CC3)nc(C(F)(F)F)n2)cc1 [Compound 75, (R)-2-(4-(1-(6-((S)-2-((4-cyanophenethyl)carbamoyl)pyrrolidin-1-yl)-2-(trifluoromethyl)pyrimidin-4-yl)piperidin-4-yl)butanamido)succinic acid] |
| 11 | < 100 | < 100 | N#Cc1ccc(CCNC(=O)[C@@H]2CCCN2c2cc(N3CCC(CCCC(=O)NCCOCCOCCNC(=N)N)CC3)nc(C(F)(F)F)n2)cc1 [Compound 127, (S)-1-(6-(4-(1-amino-1-imino-12-oxo-5,8-dioxa-2,11-diazapentadecan-15-yl)piperidin-1-yl)-2-(trifluoromethyl)-pyrimidin-4-yl)-N-(4-cyanophenethyl)-pyrrolidine-2-carboxamide] |
| 2.6 | < 100 | < 100 | N#Cc1ccc(CCNC(=O)[C@@H]2CCN2c2cc(N3CCC(CCNc4c(NCCC(=O)O)c(=O)c4=O)CC3)nc(C(F)(F)F)n2)cc1 [Compound 301, (S)-3-((2-((2-(1-(6-(2-((4-cyanophenethyl)carbamoyl)azetidin-1-yl)-2-(trifluoromethyl)pyrimidin-4-yl)piperidin-4-yl)ethyl)amino)-3,4-dioxocyclobut-1-en-1-yl)amino)propanoic acid] |
| 6.5 | < 100 | < 100 | N#Cc1ccc(CCNC(=O)[C@@H]2CCCN2c2cc(N3CCC(CCNS(=O)(=O)CCNc4ncc(C(=O)O)cn4)CC3)nc(C(F)(F)F)n2)cc1 [Compound 117, (S)-2-((2-(N-(2-(1-(6-(2-((4-cyanophenethyl)carbamoyl)pyrrolidin-1-yl)-2-(trifluoromethyl)pyrimidin-4-yl)piperidin-4-yl)ethyl)sulfamoyl)ethyl)amino)-pyrimidine-5-carboxylic acid] |
| 2 | < 100 | < 100 | O=C(CCCC1CCN(c2cc(N3CCC[C@H]3C(=O)NCCc3ccc(C(F)(F)F)cc3)nc(C(F)(F)F)n2)CC1)NCCNc1ncnc2[nH]cnc12 [Compound 95, (S)-1-(6-(4-(4-((2-((9H-purin-6-yl)amino)ethyl)amino)-4-oxobutyl)piperidin-1-yl)-2-(trifluoromethyl)pyrimidin-4-yl)-N-(4-(trifluoromethyl)phenethyl)pyrrolidine-2-carboxamide] |
| 16 | < 100 | < 100 | N#Cc1ccc(CCNC(=O)[C@@H]2CCCN2c2cc(N3CCC(CCCNC(=O)NCCS(=O)(=O)O)CC3)nc(C(F)(F)F)n2)cc1 [Compound 119, (S)-2-(3-(3-(1-(6-(2-((4-cyanophenethyl)carbamoyl)pyrrolidin-1-yl)-2-(trifluoromethyl)pyrimidin-4-yl)piperidin-4-yl)propyl)ureido)-ethanesulfonic acid] |
| 69 | < 100 | < 100 | O=C(CCCC1CCN(c2cc(N3CCC[C@H]3C(=O)NCCc3cccc(Cl)c3Cl)nc(C(F)(F)F)n2)CC1)NCS(=O)(=O)O [Compound 138, (S)-(4-(1-(6-(2-((2,3-dichlorophenethyl)carbamoyl)pyrrolidin-1-yl)-2-(trifluoromethyl)pyrimidin-4-yl)piperidin-4-yl)butanamido)-methanesulfonic acid] |
| 12 | < 100 | < 100 | N=C(N)NCCNC(=O)CCCC1CCN(c2cc(N3CCC[C@H]3C(=O)NCCc3ccc(C(F)(F)F)cc3)nc(C(F)(F)F)n2)CC1 [Compound 131, (S)-1-(6-(4-(4-((2-guanidinoethyl)-amino)-4-oxobutyl)piperidin-1-yl)-2-(trifluoromethyl)pyrimidin-4-yl)-N-(4-(trifluoromethyl)phenethyl)pyrrolidine-2-carboxamide] |
